These results are taken from patent US20250072423A1, “THIOPHENE ACETIC ACID FOR PLANT GROWTH REGULATION” (priority 2023, published 2025).

For test [1], the system named is auxin-response promoter DR5. The method, then: Artificial auxin-response promoter DR5 that contains a minimal 35S promoter fused to 9 repeats of an AuxRE with strict auxin specificity and responsive to only active auxins is used to indirectly visualize auxin in plants.
To further analyze the ability of TAA to induce an auxin response in tobacco, seedlings from transgenic tobacco plants expressing reporter gene RFP (red fluorescent protein gene) under the control of DR5 promoter were treated with different concentrations of TAA and compared the pattern of RFP fluorescence to that generated by equimolar concentration of other reported auxins over time.
Induction of an auxin response by TAA was analyzed by detecting the expression of fluorescent reporter gene under the control of auxin response elements (AuxRE) in transgenic tobacco. Plant transformation vector DR5rev::erRFP carrying DsRED reporter gene under an auxin-responsive promoter was obtained from addgene (www.addgene.org, plasmid ID. 61011). The plasmid was introduced into the Agrobacterium strain LBA4404, using freeze-thaw transformation. Transgenic plants were selected on a medium containing 25 mg/L hygromycin and then verified by PCR (polymerase chain reaction). The rooted plants were grown in soil and PCR positive tobacco seedlings were used in further experiments.

The subject of test [2] is AtIAA29 (AT4G32280). As to the kind of experiment: qRT-PCR of early auxin-responsive gene AtIAA29 (Experiment 9). The conditions noted are these: 5 and 10 μM TAA. The class given is in vivo, A. thaliana. The method, then: (§1) To analyze TAA responsive genes in Arabidopsis, WT Arabidopsis seeds were germinated as described and 14-day-old uniform-looking seedlings were initially acclimatized in liquid germination medium for 2 hours before transferring to medium containing different concentrations of TAA (5 and 10 μM). Seedlings in media supplemented with DMSO were used as control. Five random seedlings were selected and considered as one sample and three samples from both control and treatments were flash frozen in liquid nitrogen and total RNA was isolated using a TRIzol reagent (ThermoFisher Scientific, Cat #15596026).
(§2) Expression levels of seven previously reported early auxin-responsive genes were verified by qRT-PCR (quantitative reverse transcription polymerase chain reaction). RNA reverse transcription was performed using QuantiTect Reverse Transcription Kit (Qiagen). Three biological replicates and three technical replicates were used for all qRT-PCRs. Arabidopsis actin gene (AT3G18780) was used as internal reference.
(Real-time PCR tracks product formation cycle by cycle.)

The subject of test [3] is AtIAA5 (AT1G15580). As to the kind of experiment: qRT-PCR of early auxin-responsive gene AtIAA5 (Experiment 9). The class given is in vivo, A. thaliana. The conditions noted are these: 5 and 10 μM TAA. Here is the method: as §1, §2
Test [4] concerns WT A. thaliana seedlings. As to the kind of experiment: Root gravitropism of WT Arabidopsis seedlings (Experiment 8). The class given is in vivo. The method, then:
(§3) Arabidopsis Columbia-0 wild type (WT) was used for assessing the effect of TAA on root growth and its effects on the expression of auxin-responsive genes. Seeds of A. thaliana were surface sterilized by suspending in 70% ethanol for 1 minute, followed by treatment with 10% bleach for 20 minutes. After thorough washing with sterile distilled water, the sterilized seeds were plated onto germination medium (half-strength Murashige and Skoog basal medium with vitamins (1/2 MS) medium supplemented with 1% sucrose and 0.7% plant agar) for germination. Germination was initiated by incubating the seeds in darkness at 5° C. for 2 days, followed by transfer to a light environment at 22° C. with a photoperiod of 16-h light/8-h dark for further growth. Stock solutions of TAA were prepared in DMSO (dimethyl sulfoxide). In control treatments, DMSO was used in equal amounts as present in the greatest concentration of TAA tested.
To analyze the effect of TAA on gravitropism, WT A. thaliana seeds were cultured on 1/2 MS medium for 8 days. Uniform seedlings were then selected and vertically grown in germination medium supplemented with different concentrations of TAA (1, 2, 5, 10, and 25 μM) for 24 h. Seedlings grown on media supplemented with DMSO were used as control. The plates were then rotated clockwise 90° to make the root parallel to the ground. The seedlings were allowed to grow for 73 h and the plates were photographed at different intervals. Image J software was used to measure the curvature of 16 plants each in the control and treatment groups.

Test [5] has as its system WT Arabidopsis seedlings. The experiment in a line: Root growth of WT Arabidopsis seedlings in the presence of NPA (Experiment 7). The class given is in vivo, A. thaliana. The following applies: 5 μM TAA added, all NPA concentrations analyzed (0.5-8 μM). Here is the method:
as §3
To analyze the effect of TAA on root growth in the presence of NPA (N-1-naphthylphthalamic acid), WT Arabidopsis seedlings were germinated as described and uniform-looking 8-day-old seedlings were transferred to germination medium supplemented with different concentrations of TAA (5 and 10 μM) and different concentrations of NPA (0, 0.5, 1, 2, 4, and 8 μM). The seedlings were allowed to grow for 6 days and the plates were photographed at 24 h intervals. […]

`O=C(O)Cc1ccsc1` [TAA]: the “RFP after short-term treatment and withdrawal” value in test [1] (48 h after TAA withdrawal) is “detectable in roots even after 48 h of TAA withdrawal”. For the same molecule, in test [1] (all concentrations of TAA analyzed), the “time to auxin reporter gene expression in primary root tips” value is not above 30 min. The “spread of RFP fluorescence” value in test [1] (by 48 h of treatment) is given as “RFP signal was observable in secondary roots”. In addition, the “RFP signal at the root tip with increasing TAA concentrations” value in test [1] (dose dependence) was “gradually increased”. Further, the AtIAA29 expression entry in test [2] is “induction”. For the same molecule, in test [3], the AtIAA5 expression entry was “induction”. For the same molecule, the “growth angle of primary roots” value in test [4] (50 h after treatment (FIG. 8b)) is on record as approximately 90 °; in test [4] (higher concentrations (5, 10 and 25 μM)) it was “did not show a marked change in growth angle”. Besides, the “rate of gravitropic response” value in test [4] (lower concentrations (1 and 2 μM), plates rotated 90°) is “enhanced the rate of gravitropic response”. Further, the “number of root hairs” value in test [5] is listed as “increased the number of root hairs”.
